According to ChEMBL document CHEMBL4825722, “Discovery of Potent Selective Nonzinc Binding Autotaxin Inhibitor BIO-32546” (ACS Med Chem Lett, 2021):
In brackets after ≈: the same amount, converted by molar mass.

Columns and labels:
[1] = AUC (0 to 24 hrs) in rat at 10 mg/kg, po; assay type: ADME, organism-based; design: time < 24 hr, route oral, dose 10 mg/kg; conditions: in vivo
[2] = target: Voltage-gated inwardly rectifying potassium channel KCNH2 (Homo sapiens, UniProt Q12809); experiment: Inhibition of human ERG by automated patch-clamp assay
[3] = Volume of distribution at steady state in rat at 1.0 mg/kg, iv; assay type: ADME, organism-based; conditions: in vivo, read-out: Vdss
Cytochrome P450 3A4 = Cytochrome P450 3A4 (Homo sapiens, UniProt P08684); experiment: Inhibition of CYP3A4 in human liver microsomes incubated for 15 mins in presence of NADPH by LC-MS/MS analysis; assay type: ADME
[4] = Cmax in C57BL/6 mouse plasma at 2.32 mg/kg, iv; assay type: ADME, organism-based; design: route intravenous, dose 2.32 mg/kg
[5] = Half life in cynomolgus monkey at 0.2 mg/kg, iv; assay type: ADME, organism-based, Macaca fascicularis; conditions: in vivo
[6] = Drug concentration in Sprague-Dawley rat at 0.3 mg/kg, po after 6 hrs by LC-MS/MS analysis; assay type: ADME, organism-based; conditions: in vivo, read-out: Drug uptake
[7] = Oral bioavailability in C57BL/6 mouse at 10 mg/kg; assay type: ADME, organism-based; conditions: in vivo
[8] = target: Sphingosine 1-phosphate receptor 5 (Homo sapiens, UniProt Q9H228); experiment: Inhibition of S1P5 (unknown origin)
[9] = target: Sphingosine 1-phosphate receptor 1 (Homo sapiens, UniProt P21453); experiment: Inhibition of S1P1 (unknown origin)
[10] = Tmax in cynomolgus monkey at 1.0 mg/kg, po; assay type: ADME, organism-based, Macaca fascicularis; conditions: in vivo
[11] = Cmax in C57BL/6 mouse brain at 2.32 mg/kg, iv; assay type: ADME, organism-based; design: route intravenous, dose 2.32 mg/kg
[12] = Drug concentration in mouse brain at 10 mg/kg, po; assay type: ADME, organism-based; conditions: in vivo
[13] = Oral bioavailability in dog at 1.0 mg/kg; assay type: ADME, organism-based, Canis lupus familiaris; conditions: in vivo
[14] = Apparent permeability across basolateral to apical side in human Caco-2 cells incubated for 120 mins by lucifer yellow based LC-MS/MS analysis
[15] = target: Sphingosine 1-phosphate receptor 2 (Homo sapiens, UniProt O95136); experiment: Inhibition of S1P2 (unknown origin)
[16] = Cmax in rat at 10 mg/kg, po; assay type: ADME, organism-based; design: route oral, dose 10 mg/kg; conditions: in vivo
[17] = Cmax in C57BL/6 mouse plasma at 10 mg/kg, po; assay type: ADME, organism-based; design: route oral, dose 10 mg/kg
Cytochrome P450 2D6 = Cytochrome P450 2D6 (Homo sapiens, UniProt P10635); experiment: Inhibition of CYP2D6 in human liver microsomes incubated for 15 mins in presence of NADPH by LC-MS/MS analysis; assay type: ADME
[18] = AUC (0 to 24 hrs) in C57BL/6 mouse plasma at 2.32 mg/kg; assay type: ADME, organism-based; design: time < 24 hr, dose 2.32 mg/kg
[19] = Cmax in dog at 1.0 mg/kg, po; assay type: ADME, organism-based, Canis lupus familiaris; design: route oral, dose 1 mg/kg; conditions: in vivo
Cytochrome P450 1A2 = target: T1, Cytochrome P450 1A2 (Homo sapiens, UniProt P05177); experiment: Inhibition of CYP1A2 in human liver microsomes incubated for 15 mins in presence of NADPH by LC-MS/MS analysis; assay type: ADME
T1 sequence (P05177 whole entry): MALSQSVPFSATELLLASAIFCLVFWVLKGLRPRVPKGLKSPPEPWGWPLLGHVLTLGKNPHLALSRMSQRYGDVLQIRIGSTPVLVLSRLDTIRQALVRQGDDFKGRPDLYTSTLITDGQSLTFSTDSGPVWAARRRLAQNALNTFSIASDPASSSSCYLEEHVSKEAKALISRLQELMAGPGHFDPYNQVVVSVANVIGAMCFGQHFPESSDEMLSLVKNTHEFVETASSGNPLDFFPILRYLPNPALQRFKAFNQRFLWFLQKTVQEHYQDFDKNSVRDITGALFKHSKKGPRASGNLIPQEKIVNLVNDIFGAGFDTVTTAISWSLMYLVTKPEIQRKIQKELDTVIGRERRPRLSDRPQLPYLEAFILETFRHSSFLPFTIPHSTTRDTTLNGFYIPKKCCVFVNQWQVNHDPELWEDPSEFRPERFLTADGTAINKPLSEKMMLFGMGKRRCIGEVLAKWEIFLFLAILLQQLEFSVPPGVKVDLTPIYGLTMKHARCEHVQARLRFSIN

[20] = target: T2, Lysophosphatidic acid receptor 3 (Homo sapiens, UniProt Q9UBY5); experiment: Inhibition of LPA3 (unknown origin)
T2 sequence (Q9UBY5 whole entry): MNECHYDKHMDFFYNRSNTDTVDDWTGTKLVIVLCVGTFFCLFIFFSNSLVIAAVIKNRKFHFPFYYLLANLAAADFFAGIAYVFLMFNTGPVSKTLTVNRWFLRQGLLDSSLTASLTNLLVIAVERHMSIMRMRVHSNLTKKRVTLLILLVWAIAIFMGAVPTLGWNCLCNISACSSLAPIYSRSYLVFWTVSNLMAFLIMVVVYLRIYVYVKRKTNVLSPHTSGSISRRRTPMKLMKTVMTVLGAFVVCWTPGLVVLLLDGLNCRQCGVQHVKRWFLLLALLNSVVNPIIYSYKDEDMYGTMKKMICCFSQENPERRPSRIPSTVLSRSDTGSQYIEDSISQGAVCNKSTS

[21] = Unbound Cmax in C57BL/6 mouse brain at 10 mg/kg, po; assay type: ADME, organism-based; conditions: in vivo
Rattus norvegicus = experiment: Effect on Sprague-Dawley rat CFA inflammatory […] model assessed as reduction in 20:4 LPA level at 0.3 mg/kg after 6 hrs by LC-MS/MS analysis; assay type: functional; design: scale not given: the % may be the effect or the level left
[22] = Solubility of the compound at pH 7.0 by shake flask method; conditions: buffer
[23] = Clearance in C57BL/6 mouse plasma at 2.32 mg/kg; assay type: ADME, organism-based
[24] = Half life in C57BL/6 mouse plasma at 2.32 mg/kg; assay type: ADME, organism-based
[25] = Protein binding in rat plasma assessed as unbound fraction; assay type: ADME, cell-free
[26] = Protein binding in C57BL/6 mouse brain assessed as unbound fraction; assay type: ADME, tissue-based

Cytochrome P450 2D6, sequence (P10635 whole entry): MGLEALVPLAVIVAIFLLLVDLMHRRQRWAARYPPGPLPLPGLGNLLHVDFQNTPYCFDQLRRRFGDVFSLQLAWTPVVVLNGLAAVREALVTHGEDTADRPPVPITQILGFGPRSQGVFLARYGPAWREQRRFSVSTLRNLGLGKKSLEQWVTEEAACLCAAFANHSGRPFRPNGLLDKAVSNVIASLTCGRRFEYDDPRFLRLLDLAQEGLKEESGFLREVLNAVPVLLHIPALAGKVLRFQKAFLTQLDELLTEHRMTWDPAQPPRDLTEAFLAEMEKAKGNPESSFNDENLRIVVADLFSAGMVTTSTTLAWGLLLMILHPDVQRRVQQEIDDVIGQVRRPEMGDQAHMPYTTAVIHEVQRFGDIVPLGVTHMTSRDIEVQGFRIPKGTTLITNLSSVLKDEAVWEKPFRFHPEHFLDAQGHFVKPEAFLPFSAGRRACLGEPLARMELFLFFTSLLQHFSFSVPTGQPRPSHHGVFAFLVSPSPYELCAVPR
Sphingosine 1-phosphate receptor 1, sequence (P21453 whole entry): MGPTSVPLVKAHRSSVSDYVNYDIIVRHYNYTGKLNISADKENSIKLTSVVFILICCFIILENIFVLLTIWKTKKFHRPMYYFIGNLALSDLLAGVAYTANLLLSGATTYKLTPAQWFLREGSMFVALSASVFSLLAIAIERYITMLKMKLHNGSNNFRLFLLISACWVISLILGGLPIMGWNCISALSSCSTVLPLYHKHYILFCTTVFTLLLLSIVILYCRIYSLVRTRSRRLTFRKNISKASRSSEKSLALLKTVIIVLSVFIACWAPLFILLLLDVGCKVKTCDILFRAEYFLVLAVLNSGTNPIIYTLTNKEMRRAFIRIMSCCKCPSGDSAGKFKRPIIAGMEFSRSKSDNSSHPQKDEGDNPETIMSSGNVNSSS
Sphingosine 1-phosphate receptor 5, sequence (Q9H228 whole entry): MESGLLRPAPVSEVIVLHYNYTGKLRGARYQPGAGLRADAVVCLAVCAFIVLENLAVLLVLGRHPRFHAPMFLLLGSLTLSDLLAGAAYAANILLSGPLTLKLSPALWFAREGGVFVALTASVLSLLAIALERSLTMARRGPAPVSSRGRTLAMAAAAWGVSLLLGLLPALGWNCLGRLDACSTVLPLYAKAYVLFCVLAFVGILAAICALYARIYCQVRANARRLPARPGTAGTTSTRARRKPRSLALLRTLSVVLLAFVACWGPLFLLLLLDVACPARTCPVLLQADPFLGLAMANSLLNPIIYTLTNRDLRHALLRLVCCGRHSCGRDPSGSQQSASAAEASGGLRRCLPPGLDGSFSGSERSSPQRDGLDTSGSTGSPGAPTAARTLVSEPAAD
Sphingosine 1-phosphate receptor 2, sequence (O95136 whole entry): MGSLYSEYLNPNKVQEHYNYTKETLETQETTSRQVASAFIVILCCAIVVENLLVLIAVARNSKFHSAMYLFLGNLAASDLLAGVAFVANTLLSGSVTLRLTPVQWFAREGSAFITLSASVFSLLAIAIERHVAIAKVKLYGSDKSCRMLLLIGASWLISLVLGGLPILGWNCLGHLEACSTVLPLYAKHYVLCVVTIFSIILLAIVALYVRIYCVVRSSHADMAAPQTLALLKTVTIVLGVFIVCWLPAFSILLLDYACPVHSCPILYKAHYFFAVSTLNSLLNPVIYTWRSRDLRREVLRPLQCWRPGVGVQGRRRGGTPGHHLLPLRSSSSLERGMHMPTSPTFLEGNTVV
Cytochrome P450 3A4, sequence (P08684 whole entry): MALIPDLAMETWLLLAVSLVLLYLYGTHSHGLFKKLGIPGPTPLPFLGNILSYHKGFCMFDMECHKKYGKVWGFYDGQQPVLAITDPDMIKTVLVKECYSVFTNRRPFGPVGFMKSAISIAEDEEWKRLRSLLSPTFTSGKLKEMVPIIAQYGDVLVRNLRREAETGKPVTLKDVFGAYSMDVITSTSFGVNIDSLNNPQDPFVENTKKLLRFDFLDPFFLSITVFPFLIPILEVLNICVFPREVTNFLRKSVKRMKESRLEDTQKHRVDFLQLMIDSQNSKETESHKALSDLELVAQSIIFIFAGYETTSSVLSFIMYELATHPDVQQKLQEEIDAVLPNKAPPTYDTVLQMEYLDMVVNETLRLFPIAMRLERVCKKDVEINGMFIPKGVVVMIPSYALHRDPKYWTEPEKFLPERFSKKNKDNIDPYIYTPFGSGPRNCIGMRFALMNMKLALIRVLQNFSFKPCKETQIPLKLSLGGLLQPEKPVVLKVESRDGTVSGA
Voltage-gated inwardly rectifying potassium channel KCNH2, sequence (Q12809 whole entry): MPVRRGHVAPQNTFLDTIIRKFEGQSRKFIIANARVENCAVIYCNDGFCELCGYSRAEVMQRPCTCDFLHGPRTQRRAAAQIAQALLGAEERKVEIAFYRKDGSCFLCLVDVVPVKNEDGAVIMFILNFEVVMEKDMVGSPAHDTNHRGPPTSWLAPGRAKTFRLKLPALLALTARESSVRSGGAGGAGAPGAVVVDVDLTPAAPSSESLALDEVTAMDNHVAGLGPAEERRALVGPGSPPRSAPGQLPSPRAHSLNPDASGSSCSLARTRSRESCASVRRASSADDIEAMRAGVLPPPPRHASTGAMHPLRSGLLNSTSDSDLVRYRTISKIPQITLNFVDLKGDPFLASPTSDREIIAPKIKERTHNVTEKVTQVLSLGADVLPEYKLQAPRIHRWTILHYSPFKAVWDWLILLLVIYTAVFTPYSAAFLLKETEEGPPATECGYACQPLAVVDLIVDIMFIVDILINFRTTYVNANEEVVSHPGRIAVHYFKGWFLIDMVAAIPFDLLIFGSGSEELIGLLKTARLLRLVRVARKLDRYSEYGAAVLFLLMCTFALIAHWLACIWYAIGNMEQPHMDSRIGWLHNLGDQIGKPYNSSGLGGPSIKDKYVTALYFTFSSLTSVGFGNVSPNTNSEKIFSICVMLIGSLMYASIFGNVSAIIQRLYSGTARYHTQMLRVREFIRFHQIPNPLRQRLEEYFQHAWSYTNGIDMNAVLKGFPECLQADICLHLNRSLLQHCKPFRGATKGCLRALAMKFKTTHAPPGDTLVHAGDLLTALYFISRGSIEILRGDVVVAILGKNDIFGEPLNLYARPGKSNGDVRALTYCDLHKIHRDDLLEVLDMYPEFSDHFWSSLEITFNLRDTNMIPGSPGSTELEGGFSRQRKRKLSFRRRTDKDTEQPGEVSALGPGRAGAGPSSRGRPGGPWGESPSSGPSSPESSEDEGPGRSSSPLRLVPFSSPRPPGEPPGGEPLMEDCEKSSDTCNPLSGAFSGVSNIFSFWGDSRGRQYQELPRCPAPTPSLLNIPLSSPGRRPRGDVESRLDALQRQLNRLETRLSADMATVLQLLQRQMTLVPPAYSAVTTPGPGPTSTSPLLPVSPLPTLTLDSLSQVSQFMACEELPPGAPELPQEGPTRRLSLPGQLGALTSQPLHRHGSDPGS

## C[C@@H](c1ccc2ccc(O[C@H]3CC[C@@H](C(F)(F)F)CC3)c(C(F)(F)F)c2c1)N1C2CCC1CC(C(=O)O)C2 (stereo not given in full)
[1]
  AUC(0-t) at 24 h: 3970 ng·h/mL
[2]
  IC50: > 10 µM
[3]
  Vd: 3 L/kg
Cytochrome P450 3A4
  IC50: > 10 µM
[4]
  Cmax: 1270 ng/mL
[5]
  half-life: 4 h
[6]
  concentration at 6 h: 4.3 ng/mL
[7]
  bioavailability: 51%
[8]
  IC50: > 10 µM
[9]
  IC50: > 10 µM
[10]
  Tmax: 4 h
[11]
  Cmax: 274 ng/mL
[12]
  AUC: 8840 ng·h/mL
[13]
  bioavailability: 69%
[14]
  Papp B→A at 2 h: 40.3 ×10⁻⁶ cm/s
[15]
  IC50: > 10 µM
[16]
  Cmax: 813 ng/mL
[17]
  Cmax: 1070 ng/mL
Cytochrome P450 2D6
  IC50: > 10 µM
[18]
  AUC(0-t) at 24 h: 6170 ng·h/mL
[19]
  Cmax: 376 ng/mL
Cytochrome P450 1A2
  IC50: > 10 µM
[20]
  IC50: > 10 µM
[21]
  fCmax: 1.5 nM
Rattus norvegicus
  Activity: 92%
[22]
  solubility thermodynamic: 73.2 µg/mL (≈ 135 µM)
[23]
  clearance: 6.09 mL/min/kg
[24]
  half-life: 4.72 h
[25]
  Fu: 0.45%
[26]
  Fu: 0.096%
